For assay [1], the system named is normal mice. Briefly: Open field test in normal mice. The assay is classed as in vivo, mouse. To be noted: normal male C57BL/6J mice, 30 mg/kg i.p., 60 min after administration, 10 min test. As to the method: The effects of PA-8 and PA-81004 on normal mice were evaluated by an open field test (test to measure spontaneous locomotion in a novel environment by exploiting the properties of mice to do exploratory behavior in such a novel environment, and using a 40 cm×40 cm box of 30 cm in height; spontaneous motor activity is measured from the total distance traveled; in this test, anxiety-like behavior is evaluated by exploiting the properties of mice to prefer to stay near walls and avoid light environments, and measuring a time spent in a center zone (20 cm×20 cm) or the number of entries thereto). Male C57BL/6J mice (8 to 12 weeks old) were acclimatized to a laboratory (illuminance: 40 lx) for 60 minutes. Then, a vehicle (10% DMSO solution; dissolved in saline; n=11), PA-8 (30 mg/kg; n=9) or PA-81004 (30 mg/kg; n=12) was intraperitoneally administered thereto (0.1 mL/10 g). After a lapse of 60 minutes after administration, the test was conducted for 10 minutes. The results are shown in FIG. 1 (A: total distance traveled, B: the number of center zone entries, C: time spent in the center zone). The effects of PA-9 and PA-915 on normal mice were evaluated by the open field test. Male C57BL/6J mice (8 to 12 weeks old) were acclimatized to a laboratory (illuminance: 40 lx) for 60 minutes. Then, a vehicle (10% DMSO solution; dissolved in saline; n=10), PA-9 (30 mg/kg; n=11) or PA-915 (30 mg/kg; n=10) was intraperitoneally administered thereto (0.1 mL/10 g). After a lapse of 60 minutes after administration, the test was conducted for 10 minutes. The results are shown in FIG. 5 (A: total distance traveled, B: the number of center zone entries, C: time spent in the center zone).

The subject of assay [2] is chronic social defeat stress mice. Briefly: Chronic social defeat stress, social preference or avoidance test (SPAT). The following applies: for effect on chronic social defeat stress-induced social behavioral abnormality (SPAT): 30 mg/kg i.p. once daily for 7 consecutive days, SPAT 30 min after final administration (Day 18); for sustained effect on social behavioral abnormality (social interaction ratio) / effect on social behavioral abnormality (social interaction ratio): Example 18; for sustained effect on social behavioral abnormality (social interaction ratio): 7, 14, 28 days after single i.p. dose (PA-915 30 mg/kg, ketamine 20 mg/kg), fluoxetine 20 mg/kg i.p. 14-day consecutive administration; for effect on social behavioral abnormality (social interaction ratio): single i.p. dose (PA-915 30 mg/kg, ketamine 20 mg/kg, fluoxetine 20 mg/kg), 60 minutes later (Day 12). The format is in vivo, mouse.
Excerpt: When male C57BL/6N mice (8 to 12 weeks old) are allowed to coexist with ICR mice having a large physical size, the male C57BL/6N mice run about in the beginning in order to avoid attack by the ICR mice, but eventually make a posture to immediately raise their forelegs and accept defeats (obedience) by repeated load for 5 days to 10 days (chronic social defeat stress (SDS) load).
The social preference or avoidance test (SPAT) is a test that has received attention in recent years as a highly extrapolatable antidepressant drug screening system. SPAT evaluates the degree of interest in others (sociality). A box (which has a wired contact surface) is disposed in an open field. A time of contact with a target (time spent in an interaction zone) and a time spent in an avoidance zone are measured without the target (ICR mice) placed in the box in the first run and with the target (ICR mice) placed in the box in the second run. Time spent in the second run/Time spent in the first run is calculated (social interaction ratio). The social interaction ratio is decreased in chronic social defeat stress mice. Stress susceptibility differs among individuals, and susceptible individuals (social interaction ratio <1) and resilient individuals (social interaction ratio 1) are found.
(§1) Chronic social defeat stress was applied at 10 min/day for 10 days (Days 1 to 10) to male C57BL/6N mice (8 to 12 weeks old) each reared in isolation for 10 days or longer. On Day 11, the social preference or avoidance test (SPAT) was conducted, and susceptible mice were selected. A vehicle (10% DMSO solution; dissolved in saline; n=12) or PA-8 (30 mg/kg; n=9) was intraperitoneally administered once daily (0.1 mL/10 g) for 7 consecutive days from day 12. SPAT was conducted for 150 seconds 30 minutes after the final administration on the 7th day (Day 18). Mice reared for 10 days in a home cage without chronic social defeat stress load were used as a control (n=12). The results are shown in FIG. 15 (A: social interaction ratio, B: time spent in the interaction zone, C: time spent in the avoidance zone). The data was indicated by mean±standard error. *P<0.05 (One-way ANOVA followed by Tukey-Kramer test).
as §1, with “or PA-9” for “or PA-8”, “FIG. 17” for “FIG. 15”, “zone). […]” for “zone).”
Chronic social defeat stress was applied at 10 min/day for 10 days (Days 1 to 10) to male C57BL/6N mice (8 to 12 weeks old) each reared in isolation for 10 days or longer. On Day 11, the social preference or avoidance test (SPAT) was conducted, and susceptible mice were selected. On the next day (Day 12), a vehicle (10% DMSO solution; dissolved in saline; n=17) or PA-915 (30 mg/kg; n=17) was intraperitoneally administered (0.1 mL/10 g) to the mice. SPAT was conducted for 150 seconds 60 minutes later. Mice reared for 10 days in a home cage without chronic social defeat stress load were used as a control (n=22). The results are shown in FIG. 19 (A: social interaction ratio, B: time spent in the interaction zone, C: time spent in the avoidance zone). […] The data was indicated by mean±standard error. **P<0.01; *P<0.05 (One-way ANOVA followed by Tukey-Kramer test). […]

For the compound `C=CCOc1ccc(C2CC(=O)Nc3nc(N)[nH]c(=O)c32)cc1OC` (stereo not drawn) [PA-8], the “pharmacological action in open field test (total distance traveled, center zone entries, time in center zone)” value (from here on “pharmacological action”) in assay [1] is “no pharmacological action”. Also, the “effect on chronic social defeat stress-induced social behavioral abnormality (SPAT)” value in assay [2] is given as “improving effect”.

For `O=C(NCCc1c[nH]cn1)C1CC(=O)N(c2n[nH]c3ccccc23)C1` (stereo not drawn) [PA-9], the “pharmacological action” value in assay [1] was “no pharmacological action”. Also, the “effect on chronic social defeat stress-induced social behavioral abnormality (SPAT)” value in assay [2] is “tended to improve social behavioral abnormality”.

Turning to `Nc1nc2c(c(=O)[nH]1)C(c1cccc(OC(F)(F)F)c1)CC(=O)N2` (stereo not drawn) [PA-81004, 2-Amino-5-(3-trifluoromethoxyphenyl)-5,8-dihydro-3H,6H-pyrido[2,3-d]pyrimidine-4,7-dione], the “pharmacological action” value in assay [1] is “no pharmacological action”. For the compound `CNCCC(Oc1ccc(C(F)(F)F)cc1)c1ccccc1` (stereo not drawn) [fluoxetine], in assay [2], the “sustained effect on social behavioral abnormality (social interaction ratio)” value was “neither the single-dose administration nor 14-day consecutive administration of fluoxetine improved social behavioral abnormality” and the “effect on social behavioral abnormality (social interaction ratio)” value is recorded as “neither the single-dose administration nor 14-day consecutive administration of fluoxetine improved social behavioral abnormality”. `CNC1(c2ccccc2Cl)CCCCC1=O` (stereo not drawn) [ketamine]: in assay [2], the “sustained effect on social behavioral abnormality (social interaction ratio)” value was “maintained its effectiveness 7, 14, and 28 days later”; the “effect on social behavioral abnormality (social interaction ratio)” value was “improved social behavioral abnormality”.
